Source: patent US20040175401A1, “Enhanced parmacokinetic profile of hydrophobic substances” (priority 2001, published 2004)
Read-outs that look alike come from different tables or passages of the source. Marks after values point to notes of the source that are not given here.

Legend:
[1] = starred values; log P estimated using SRC program
[2] = n-octanol/water partition coefficient LogPoct calculated from solubility data; conditions: calculated as logPoct = (0.99 - logSw)/1.34
From the text: where logSw is the molar solubility and logPoct is the water-oil partition coefficient. Using this equation, values for logPoct can be calculated from solubility data.

[3] = molar aqueous solubility, log value; cited from earlier work

LogSw [1] | LogPoct [2] | Compound | LogSw [3]
−2.59* moles/L |  | Cc1onc(-c2ccccc2)c1-c1ccc(S(N)(=O)=O)cc1 [Valdecoxib] | 
 | 2.14 | C=C(C)C1CC=C(C)[C@@H](O)C1 (some centres unmarked) [carveol] | −1.88 moles/L
 | 4.29 | CC(C)Nc1cccnc1N1CCN(C(=O)c2cc3cc(NS(C)(=O)=O)ccc3[nH]2)CC1 [delavirdine] | −4.76 moles/L
 | 2.23 | C=CC(C)(O)CCC=C(C)C (centres unmarked) [linalool] | −2.00 moles/L

Continued, compound first:

Compound | LogSw [1] | LogPoct [2] | LogSw [3]
CCC[C@@]1(CCc2ccccc2)CC(O)=C([C@H](CC)c2cccc(NS(=O)(=O)c3ccc(C(F)(F)F)cn3)c2)C(=O)O1 [N-(3{(1R)-1-[(6R)-4-hydroxy-2-oxo-6-phenethyl-6-propyl-5,6-dihydro-2H-pyran-3-yl]propyl}phenyl)-5-(trifluoromethyl)-2-pyridinesulfonamide] | −8.00* moles/L |  | 
CCC(=O)NS(=O)(=O)c1ccc(-c2c(-c3ccccc3)noc2C)cc1 [Parecoxib] | −3.16* moles/L |  | 
CC(C)(C)NC(=O)[C@@H]1C[C@@H]2CCCC[C@@H]2CN1C[C@@H](O)[C@H](Cc1ccccc1)NC(=O)[C@H](CC(N)=O)NC(=O)c1ccc2ccccc2n1 [Saquinavir] |  | 3.97 | −4.33 moles/L
CC12CCC(C1)C(C)(C)C2O (centres unmarked) [fenchyl_alcohol] |  | 2.43 | −2.27 moles/L
CC1(C)C2CC3OC3(C)C1C2 (centres unmarked) [pinene_oxide] |  | 2.67 | −2.59 moles/L
dimethylthiolethione |  | 3.29 | −3.42 moles/L
